These results are taken from PMC9820444, “Design and Synthesis of Acridine-Triazole and Acridine-Thiadiazole Derivatives and Their Inhibitory Effect against Cancer Cells” (International Journal of Molecular Sciences, 2022).

The test system of series [1] is large cell lung cancer cells (NCI-H460). The series can be described thus: MTT antiproliferative assay, NCI-H460. It counts as cell-based, human. Conditions: read-out: Effect against cell viability (IC50), NCI-H460. As for the experimental part: (§1) All newly synthesized acridinyl derivatives (4–6) were screened for their anticancer activities in comparison to the reference compounds, 5-FU and cis-platinum. Compounds 4–6 were tested for their in vitro antitumor activities against HFF, MGC-803, BEL-7404, NCI-H460, and T24 tumor cell lines, and human normal liver cells (LO2), and the results are shown in Table 1. Most of the compounds had strong selective potency against MGC-803 and T24 cancer cells. […] In the T24 cell line assay, many compounds, especially the series of compound 4, had significant activity against T24. This implies that there is a significant increase in potency after the introduction of the aroyl thiourea group. […] To our delight, most 1,2,4-triazolethiones (5) and 1,2,4-thiadiazoles (6) have low toxicity to LO2 compared with the positive control.
(§2) Test samples, including compounds 4–6 and commercial classical anticancer drugs (5-FU and cis-platinum), were screened for their anti-cancer activity against HFF human foreskin fibroblast cells, MGC-803 human gastric cancer cells, BEL-7404 human hepatocellular carcinoma cells, NCI-H460 human large cell carcinoma cells, and T24 human bladder carcinoma cells using the 3-(4,5-dimethylthiazol-2-yl)-2,5-diphenyltetrazoliumbromide (MTT) assay method cited in the literature. The initial concentration of all the test samples was 100 μg/mL, which was serially diluted in complete medium with ten-fold dilutions to give six concentrations per compound. Their cytotoxicity was determined in 96-well flat bottomed microtiter plates. All the test samples were tested in triplicate. The results were expressed as the drug concentration that inhibited cell growth by 50% as compared to the controls (IC50). The IC50 values were calculated from regression lines obtained from the percent cell growth inhibition plotted as a function of the logarithm of the dose.
(In general: Tetrazolium dyes change colour on reduction, which living cells bring about.)

The subject of series [2] is human gastric cancer cells-803 (MGC-803). Briefly: MTT antiproliferative assay, MGC-803. The series is classed as cell-based. Particulars: read-out: Effect against cell viability (IC50), MGC-803. As for the experimental part: as §1, §2
The target of series [3] is T1, DNA topoisomerase I (topo I) (Bos taurus, UniProt F1MN93).
T1 construct: purchased Takara Bio Inc. (Shiga, Japan)
T1 sequence (F1MN93 1-767): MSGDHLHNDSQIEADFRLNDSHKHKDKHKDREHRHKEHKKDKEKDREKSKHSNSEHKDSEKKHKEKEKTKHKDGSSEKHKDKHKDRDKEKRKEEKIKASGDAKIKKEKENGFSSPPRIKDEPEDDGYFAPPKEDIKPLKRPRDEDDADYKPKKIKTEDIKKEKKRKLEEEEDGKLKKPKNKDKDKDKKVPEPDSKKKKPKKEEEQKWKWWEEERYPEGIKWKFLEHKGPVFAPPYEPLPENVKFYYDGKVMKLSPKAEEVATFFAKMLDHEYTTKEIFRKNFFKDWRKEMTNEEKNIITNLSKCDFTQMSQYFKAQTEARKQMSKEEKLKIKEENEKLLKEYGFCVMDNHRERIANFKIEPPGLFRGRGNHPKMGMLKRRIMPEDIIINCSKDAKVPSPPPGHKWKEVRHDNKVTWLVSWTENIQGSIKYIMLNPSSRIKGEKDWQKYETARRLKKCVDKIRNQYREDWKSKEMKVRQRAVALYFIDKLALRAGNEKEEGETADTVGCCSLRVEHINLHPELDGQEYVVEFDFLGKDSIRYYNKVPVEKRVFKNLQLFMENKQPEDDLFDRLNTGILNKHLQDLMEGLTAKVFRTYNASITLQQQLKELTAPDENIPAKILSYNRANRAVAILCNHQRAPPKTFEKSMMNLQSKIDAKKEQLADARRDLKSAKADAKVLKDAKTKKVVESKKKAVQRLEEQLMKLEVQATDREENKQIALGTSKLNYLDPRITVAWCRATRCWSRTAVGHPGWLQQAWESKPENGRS
The series can be described thus: Topo I inhibitory activity (pBR322). The series is classed as biochemical. Particulars: at 100 µM.

Series [4] has as its system bladder cancer cells (T24). Briefly: MTT antiproliferative assay, T24. It counts as cell-based, human. Conditions: read-out: Effect against cell viability (IC50), T24. Here is the method: as §1, §2
The test system of series [5] is human normal liver cells (LO2). The series can be described thus: Cytotoxicity against normal liver cells LO2. The series is classed as cell-based. Conditions: MTT, read-out: Effect against cell viability (IC50), LO2. Here is the method:
as §1, §2

Series [6] concerns hepatocellular carcinoma bel-7404 (BEL-7404). Briefly: MTT antiproliferative assay, BEL-7404. The series is classed as cell-based, human. Particulars: read-out: Effect against cell viability (IC50), BEL-7404. Here is the method:
as §1, §2

For series [7], the system named is human foreskin fibroblasts (HFF). Briefly: MTT antiproliferative assay, HFF. The series is classed as cell-based. Particulars: read-out: Effect against cell viability (IC50), HFF. As for the experimental part: as §1, §2
For series [8], the system named is T24 cells. The series can be described thus: Apoptosis by Annexin V-FITC/PI flow cytometry, T24. It counts as cell-based, human. Particulars: T24, at IC50 concentration (4h 8.05 μM; 6h 8.93 μM); control 1.18%. As for the experimental part: The apoptosis ratios of MGC80-3 or T24 cell lines induced by the selected compounds at the concentration of IC50 and 0.5 IC50 were quantitatively determined by flow cytometry. Four quadrant images (Q1, Q2, Q3 and Q4) were observed by flow cytometric analysis. The results of apoptosis ratios (including the early and late apoptosis ratios) after 12 h are presented in Figure 6 (MGC80-3) and Figure 7 (T24). […] After treatment with compound 6h, 5.62% (3.43 μM) and 14.25% (6.85 μM) of the cells were apoptotic. These were higher percentages than the one observed in the control (0.586%). […] The results evidently illustrate that representative compounds 5d and 6h or 4h and 6h could suppress cell proliferation by inducing apoptosis in the early apoptotic period.
(§3) The apoptosis assay and the cell cycle analysis were carried out by cytometry (FACSVerse, BD, Piscataway, NJ, USA) at an excitation wavelength of 488 nm according to the method described in the literature with slight modifications. The cells were seeded at 2 × 10^6/well and washed by cold PBS. The buffer solutions were prepared using 0.1 M pH 7.4 Hepes/NaOH, 1.4 M NaCl, and 25 mM CaCl2.
A general note: Flow cytometry measures light scatter and fluorescence of single cells or particles in a stream.

The test system of another series is zebrafish embryos. Conditions: for MAR (malformation rate) / MOR (mortality rate): zebrafish embryos 72 hpf. Here is the method:
In this experiment, 2% DMSO was used to dissolve the target products, and the abnormal rate (MAR) and mortality rate (MOR) of zebrafish embryos (72 hpf) were used for statistics.
The zebrafish embryos were collected at 6 hpf and randomly divided into naive control (embryos maintained in distilled water), vehicle control (embryos treated with 2% DMSO), and drug groups. Stock solutions of all drugs were prepared in 2% DMSO as a solubilizing agent and diluted to three concentrations (0.5 mg/mL, 1 mg/mL, and 2 mg/mL). Each group had 20 embryos per test concentration. […] Each compound was evaluated in three independent biological experiments.

Series [9] relates to T24 cells. The series can be described thus: Cell cycle analysis by flow cytometry, T24. The series is classed as cell-based, human. Particulars: T24, 8.05 μM (IC50), 48 h; control 22.89%. As for the experimental part: Compared to control, both compounds 4h and 5d interfered with the cell cycles of T24 and MGC80-3 cells, respectively.
as §3

The subject of series [10] is subintestinal veins (SIVs) in zebrafish embryos. The series can be described thus: Zebrafish angiogenesis assay (subintestinal veins, NBT/BCIP staining). It counts as in vivo. Conditions: zebrafish embryos, 1 mg/mL. An excerpt: Currently, the zebrafish has emerged as a valuable model organism to substitute traditional models for studying angiogenesis inhibitors. The genes of zebrafish show 70–80% similarity to humans, and the vascular structure of zebrafish has high similarity to that of other vertebrates. Therefore, the subintestinal veins (SIVs) in the zebrafish embryos are used as evaluation indicators for anti-angiogenesis inhibitors. In this study, NBT/BCIP vascular staining was used to observe the angiogenesis effect of representative drugs (4h, 4f, 5d, 5h, 6g and 6h) in a zebrafish model. […] Compared with the blank control group, the area of the meshed pattern vessel and the number of vascular branches in the network decreased after the administration of compounds 4h, 5d, 5h and 6h.
The 24 hpf zebrafish embryos were dechorionated with a 1 gL^−1 pronase treatment and maintained in distilled water in 12-well cell culture plates (each well contained 20 embryos). A negative control group containing zebrafish embryos in distilled water and a vehicle treatment group that was treated with 2% dimethyl sulfoxide (DMSO) were prepared. The anti-angiogenic compounds were diluted to 1 mg/mL. After incubating at 28 °C for […], the embryos were immersed in 4% paraformaldehyde and dehydrated by gradient ethanol. Subsequently, the embryos were balanced in NTMT buffer (5 M NaCl + 1 M Tris [pH 9.0–9.5] + 1 M MgCl2+ 10% Tween), and nitrotetrazolium blue chloride (NBT) and p-toluidine salt (BCIP) staining were performed. To evaluate the effect of compounds on the angiogenesis of zebrafish embryos, the growth of embryonic sub-intestinal veins (SIVs) at 72 hpf was observed using an IX71 Olympus microscope (Hamburger, Germany). The length of the SIVs was calculated using the image J 1.8.0 software (Bethesda, MD, USA).

SMILES strings stand for the structures. Where two headings read alike, the source gives them in different places. Marks after values point to notes of the source that are not given here. Bounds are passed on as bounds.

A word on the melting point: it is the temperature, or range, at which the solid turns liquid.

Consider `COc1ccc2[nH]c3ccccc3c(=NC(=S)NNC(=O)c3ccc(Cl)cc3)c2c1` [4e], for which the IC50 in [1] is 73.2 ± 3.67 µM; in series [2] (MTT) it was 25.6 ± 1.97 µM; in series [4], 10.3 ± 1.07 µM; in series [5], 10.2 ± 1.12 µM; in series [6], 25.9 ± 2.17 µM; in series [7], 66.8 ± 4.52 µM. Moreover, the “topo I inhibitory activity” value in [3] is given as “potent”.

`COc1ccc(C(=O)NNC(=S)Nc2c3ccccc3nc3ccc(C)cc23)cc1` [4h, 1-2′-methyl acridinyl-3-4’-methoxy benzoyl thiosemicarbazides]: in the series with T24 cells [8], the apoptosis ratio was 12.377%. In addition, the IC50 was 25.4 ± 3.16 µM in series [1]; 11.2 ± 1.46 µM in [2] (MTT); 8.05 ± 1.06 µM in series [4]; 9.01 ± 0.93 µM in series [5]; 27.1 ± 2.91 µM in series [6]; above 100 µM in series [7]. The “MAR (malformation rate)” value in the series with zebrafish embryos (1 mg/mL) is reported as 35% ^a; in the series on zebrafish embryos (1.5 mg/mL), 85% ^a; in the series with zebrafish embryos (2 mg/mL), 35% ^a. Also, the “MOR (mortality rate)” value in the series on zebrafish embryos (1 mg/mL) was 15% ^a; in the series on zebrafish embryos (1.5 mg/mL) it was 15% ^a; in the series on zebrafish embryos (2 mg/mL), 65% ^a. In addition, in the series with zebrafish embryos (zebrafish embryos, 2.0 mg.L^−1), the “total mortality and malformation rate” value stood at 100%. In addition, in the series on T24 cells [9], the S phase population is given as 30.04%. For the same molecule, in series [10] (compared with blank control group), the “area of the meshed pattern vessel and number of vascular branches in the network” value is “decreased”.

As for `COc1ccc(-c2n[nH]c(=S)n2-c2c3ccccc3nc3ccc(OC)cc23)cc1` [5c, 4-(2-methoxyacridin-9-yl)-5-(4-methoxyphenyl)-2,4-dihydro-3H-1,2,4-triazole-3-thione], the melting point was 262 to 267 °C. In series [1] (Homo sapiens), the IC50 stood at 36.5 ± 3.92 µM. In series [2] (Homo sapiens, MGC-803, MTT), the IC50 was determined as 15.1 ± 0.98 µM. In addition, the “topo I inhibitory activity” value in series [3] is recorded as “potent”. For the same molecule, the IC50 in series [4] (Homo sapiens) amounted to 29.3 ± 1.91 µM. Also, in [5] (Homo sapiens), the IC50 was above 100 µM. Moreover, in [6] (Homo sapiens), the IC50 stood at 28.7 ± 2.24 µM. Besides, the IC50 in [7] (Homo sapiens, Fibroblast) amounted to 75.5 ± 2.92 µM.

Molecule `CC1=CC2C(=Nc3nnc(-c4ccccc4)s3)c3ccccc3NC2C=C1` (stereo not shown) [6g, 7-methyl-N-(5-phenyl-1,3,4-thiadiazol-2-yl)-10,10a-dihydroacridin-9(8aH)-imine] came in with a melting point of 294 to 296 °C. Further, the IC50 in [1] (Homo sapiens) turned out to be 25.9 ± 1.83 µM. The IC50 in series [2] (Homo sapiens, MGC-803, MTT) stood at 9.01 ± 1.32 µM. Moreover, the IC50 in series [2] (MTT) was determined as 9.95 ± 1.03 µM. Moreover, the IC50 in [4] (Homo sapiens) was 19.3 ± 1.05 µM. Also, the IC50 in [5] (Homo sapiens) is above 100 µM. In addition, the “area of blood vessels” value in series [10] (additional blood vessels were formed on the blood vessel edge) is recorded as “could reduce the area of blood vessels”. The IC50 in series [6] (Homo sapiens) came out at 31.2 ± 3.27 µM. Besides, the IC50 in series [7] (Homo sapiens, Fibroblast) turned out to be 76.5 ± 2.79 µM.
